Assay: Solid form stability under exposure to water / humidity
Type: physicochemical

| Structure (SMILES) | stability compared with afatinib dimaleate Form A (40° C., 75% RH) | stable under exposure to water vapor under ambient conditions (about 25° C., >90% RH) | stable at about 40° C., 75% RH (about 40° C., 75% RH) | stability under exposure to water (exposure to water) | completely converts to a hydrated species (40° C., 75% RH) [days] |
| --- | --- | --- | --- | --- | --- |
| CN(C)C/C=C/C(=O)Nc1cc2c(Nc3ccc(F)c(Cl)c3)ncnc2cc1O[C@H]1CCOC1.O=C(O)/C=C\C(=O)O.O=C(O)/C=C\C(=O)O [Form Z, afatinib dimaleate] | more stable than afatinib dimaleate Form A | about 3 days | over 19 days | stable under exposure to water | – |
| CN(C)C/C=C/C(=O)Nc1cc2c(Nc3ccc(F)c(Cl)c3)ncnc2cc1O[C@H]1CCOC1.O=C(O)/C=C\C(=O)O.O=C(O)/C=C\C(=O)O [Afatinib dimaleate Form A, afatinib dimaleate] | – | – | – | – | ≤ 11 |

From US11136314B2, “Forms of afatinib dimaleate” (Johnson Matthey Public Limited Company, priority 2017, dated 2021)
